One test concerns fibronectin. In words: Fibronectin ELISA in NIH3T3 fibroblasts. It is filed as cell-based. The settings on record: NIH3T3, FIG. 9b. On the procedure: To verify whether the peptides synthesized in preparation Example 1 enhances the expression of fibronectin as a WNT target protein, NIH3T3 fibroblasts (4×10^3 cells) was added to each well of 96-well plates and cultured under 5% CO2 for 24 hr at 37° C. After 24-hr culture, the medium was changed with a fresh medium without serum and cells were treated with empty sample (for normalization), three peptides synthesized (1 μg/ml) and peptide complex (1 μg/ml) aseptically dissolved in 10% DMSO for 3 hr, 10 hr, 24 hr or 48 hr under the same conditions as described above. After 72 hr incubation, the cell culture was collected and the expression level of fibronectin was measured using Fibronectin ELISA kit (R&D systems, USA).

The subject of test [1] is β-catenin. In words: Mouse hair follicle culture, β-catenin immunostaining. It is filed as cell-based. The settings on record: 5 days culture, FIG. 13b.
The subject of test [2] is β-catenin. The test can be described thus: Western blot of β-catenin in HaCaT keratinocytes. It is filed as cell-based. To be noted: FIG. 6a; for expression level of β-catenin: 5 hr, single treatment; for β-catenin expression in the presence of DKK-1: treatment with both DKK-1 and peptide. On the procedure: (§1) HaCaT kerationcytes cultured for 48 hr were incubated with the peptides synthesized in preparation Example 1 for 5 hr. The expression level of β-catenin was examined, which is an essential signal molecule to promote hair growth as a representative signaling of WNT protein. The amount of β-catenin was measured by Western blot analysis using an antibody against β-catenin (SantaCruz, USA). In addition, it was observed by an immunohistochemical assay using the same whether β-catenin is translocated into a nucleus. […] Besides, […] activities were also observed in cytosol as β-catenin is still present in cytosol (FIG. 6b).

Test [3] deals with Hair follicle of Balb/C mouse. In words: Mouse hair follicle culture, H&E staining. To be noted: 5 days culture, FIG. 13a. It is filed as cell-based. On the procedure: Hair follicle of Balb/C mouse hair was dissected with a surgical mess and washed with ethanol, followed by additionally washing with PBS and DMEM culture solution. Hereafter, hair follicles were incubated with 5 μg/ml of each peptide complex dissolved in DMEM culture solution, and cultured under 5% CO2 for 5 days at 37° C. After 5 days-culture, hair follicles were prepared as a paraffin block and each tissue treated with control, peptide complex, DKK-1, and DKK-1 and peptide complex was stained and compared using H&E staining (FIGS. 13a-13d).

Test [4] deals with Ki-67 protein. In words: Mouse hair follicle culture, Ki-67 immunostaining. It is filed as cell-based. The settings on record: 5 days culture, FIG. 13d.
A further test concerns WNT protein. In words: Mouse hair follicle culture, WNT protein immunostaining. It is filed as cell-based. To be noted: 5 days culture, FIG. 13c.
The subject of test [5] is Ki-67 protein. The test can be described thus: Ki-67 immunostaining (cell proliferation marker) in keratinocytes. It is filed as cell-based. To be noted: FIG. 4.
For another test, the system named is NIH3T3 fibroblasts. In words: SRB colorimetric assay of cell growth in NIH3T3 fibroblasts. It is filed as cell-based. On the procedure:
(§2) In order to evaluate three peptides prepared in Preparation Examples 1-2 whether they have similar activities of growth factor, SRB (Sulforhodamine B; Sigma-Aldrich) colorimetric assay was carried out using HaCaT kerationcytes (Korean Cell Line Bank) and NIH3T3 fibroblasts (Korean Cell Line Bank) according to Rizzino et al. method (Rizzino, et al. Cancer Res., 48: 4266 (1988)).
(§3) HaCaT ketatinocytes and NIH3T3 fibroblasts were cultured in 250 ml-flasks containing EMEM (Eagle's minimal essential media; Gibco, USA) supplemented with 10% FBS (fetal bovine serum; Sigma). Cells cultured were treated with 1% trypsin solution to detach cells from the bottom of culture flasks and centrifuged to collect cell pellets. After cells were resuspended in EMEM not containing FBS, its aliquot (3×10^3 cells) was added to each well of 96-well plates and cultured under 5% CO2 for 24 hr at 37° C. After 24-hr culture, the medium was changed with a fresh medium without serum and cells were incubated with empty sample (for normalization), three peptides synthesized (1 ng/ml, 10 ng/ml, 100 ng/ml, 1 μg/ml and 10 μg/ml) and peptide complex (1 μg/ml) aseptically dissolved in 10% DMSO for 72 hr under the same conditions as described above. […] In addition, absorbance at 590 nm was measured to analyze cell viability. […]

In test [6] the test system is β-catenin. In words: Immunohistochemical assay of β-catenin translocation into nucleus in HaCaT keratinocytes. It is filed as cell-based. The settings on record: FIG. 6b. On the procedure: as §1
The next test has as its system HaCaT kerationcytes. The test can be described thus: SRB colorimetric assay of cell growth in HaCaT keratinocytes. It is filed as cell-based. To be noted: 72 hr. On the procedure: as §2, §3
(The SRB assay estimates cell density from bound dye.)

The subject of the next test is C57BL/6 mouse. In words: Mouse hair growth, topical nanosome on back skin. It is filed as in vivo. To be noted: twice every day. An excerpt:
The peptide synthesized in Preparation Example 1 was formulated into nanosome. Afterwards, the back of C57BL/6 mouse was partially removed and then the skin was topically administered with the nanosome twice every day for 15 days.

Entries after “also recorded” stand apart in the source; their conditions may differ.

For the substance “DKK-1: a WNT inhibitor and a β-catenin signaling inhibitor, hair loss gene”, the “fibronectin expression, DKK-1 alone” value in the test with fibronectin is on record as “inhibited”. Besides, the “expression of β-catenin in hair follicle, single treatment” value with β-catenin [1] was “inhibited”. In addition, in the test with β-catenin [2] (FIG. 8), the “expression level of β-catenin” value is given as “reduced”. Besides, the “hair follicles (H&E), single treatment” value in test [3] is on record as “degenerated”. Further, in the test on Ki-67 protein [4], the “expression of Ki-67 protein in hair follicle, single treatment” value is “suppressed”. For the same substance, the “expression of WNT protein in hair follicle, single treatment” value in the test with WNT protein is reported as “inhibited”.

For the substance “H-RQTRVQRCHC-OH (cysteine pairing not given here) [the peptide of the present invention]”, the “expression level of fibronectin in treatment with both DKK-1 and peptide” value in the test on fibronectin (listed as the present peptide) was “restored and enhanced; also recorded: recovered”. In addition, in the test with Ki-67 protein [5], the “expression of Ki-67 protein in keratinocytes” value was “remarkably enhanced”. Besides, the “proliferation and cell shape under a microscope, fibroblasts” value in the test with NIH3T3 fibroblasts (72 hr, FIG. 3) is “promotes proliferation of keratinocytes and fibroblasts, and changes their morphological shapes”. In the test with NIH3T3 fibroblasts (NIH3T3, 72 hr, 1 ng/ml to 10 μg/ml, FIG. 2b), the growth of fibroblasts result is reported as “notably increases the growth”. Moreover, the “translocation of β-catenin to nucleus / β-catenin activity by immunostaining” value in the test on β-catenin [6] is “elevated activity of β-catenin”; in the test with β-catenin [6] (listed as the present peptide), “contributes to translocation of β-catenin from cytosol to nucleus”. Besides, the “proliferation and cell shape under a microscope, keratinocytes” value in the test on HaCaT kerationcytes (FIG. 3) was “promotes proliferation of keratinocytes and fibroblasts, and changes their morphological shapes”. The growth of keratinocytes entry in the test on HaCaT kerationcytes (HaCaT, 1 ng/ml to 10 μg/ml, FIG. 2a) is “notably increases the growth of keratinocytes”. For the same substance, the “expression level of β-catenin” value in the test with β-catenin [2] (FIG. 8) is on record as “significantly elevated”; with β-catenin [2] (FIG. 8, listed as the present peptide), “enhancement of β-catenin expression; also recorded: induces elevated activity of β-catenin”. For the same substance, the “β-catenin expression in the presence of DKK-1” value with β-catenin [2] was “β-catenin activity is observed”; in the test with β-catenin [2] (listed as the present peptide) it was “re-increase of the expression of β-catenin; also recorded: restored and enhanced”. Moreover, the “hair growth on mouse back skin at 9 days-treatment” value with C57BL/6 mouse (C57BL/6) was “growing hair was observed”. The “amount of hair in mouse back skin at 15 days-treatment compared with control group” value in the test on C57BL/6 mouse (C57BL/6, FIG. 12) is listed as “much significantly enhanced”.

The values above are taken from US8497241B2, “WNT10-derived peptide and use thereof” (Caregen Co., Ltd., priority 2009, dated 2013).
